Reference: paper PMC9837035 (Nature Communications, 2023)
Where “and” joins values, the source holds several entries; their conditions need not be identical. Identical values can stand only once. Like-named read-outs stand apart in the source and are kept apart here.

Legend:
[1] = test system: H3K9me2 at the β-globin locus; assay: ChIP-qPCR with antibody against H3K9me2 in HUDEP-2 cells; format: cell-based, human; parameters: ChIP-qPCR using antibodies against H3K9me2 in HUDEP-2 cells: scale not given here; settings: for ChIP-qPCR using antibodies against H3K9me2 in HUDEP-2 cells: experiments 1-3, a/b replicates
Protocol: A total of 0.5–1 × 10^6 cells were cross-linked with 1% formaldehyde for 10 min at room temperature and the reaction was quenched with 250 mM glycine. Cross-linked cells were then lysed with buffer 1 (15 mM Tris-HCl (pH 7.5), 60 mM KCl, 15 mM NaCl, 5 mM MgCl2, 0.1 mM EGTA, 300 mM sucrose, […], 1 mM phenylmethanesulfonyl fluoride (PMSF), 0.5% NP40) and incubated on ice for 10 min. After centrifugation, the pellet was re-suspended in buffer 2 (15 mM Tris-HCl (pH 7.5), 60 mM KCl, 15 mM NaCl, 5 mM MgCl2, 0.1 mM EGTA, 1.2 M sucrose, […], 1 mM PMSF). After centrifugation, the pellet was then re-suspended in MNase buffer (50 mM Tris-HCl (pH 7.5), 1 mM CaCl2, 4 mM MgCl2, 320 mM sucrose, 1 mM PMSF) and digested with 100 U of micrococcal nuclease (Takara) at 37 °C for 15 min. After the reaction was quenched with 20 mM EDTA, the supernatants were incubated with antibodies (anti-H3K9me2 (1:100), Abcam, ab1220; anti-H3K9ac (1:100), Active Motif, 39917; Goat anti-IgG (H + L) (1:100), Jackson Immunoresearch; anti-BCL11A (1:100), Novus Biologicals, NB600-261; anti-ZBTB7A (1:100), Thermo Fisher Scientific, eBioscience (13E9); anti-CHD3 (1:100), Novus Biologicals, NB-100-60412; anti-CHD4 (1:100), abcam, ab240640) and Protein A/G PLUS-Agarose (Santa Cruz Biotechnology) overnight at 4 °C. Beads were washed sequentially once with the following buffers: wash buffer A (50 mM Tris-HCl (pH 7.5), 75 mM NaCl, 10 mM EDTA, 0.01% NP40), wash buffer B (50 mM Tris-HCl (pH 7.5), 100 mM NaCl, 10 mM EDTA, 0.01% NP40), wash buffer C (50 mM Tris-HCl (pH 7.5), 175 mM NaCl, 10 mM EDTA, 0.01% NP40). After treatment with proteinase K in buffer 4 (20 mM Tris-HCl (pH 8.0), 10 mM EDTA, 400 mM NaCl, 0.5% SDS) at 56 °C overnight, DNA was purified using the FastGene Gel/PCR Extraction Kit (Nippon Genetics). The samples were analyzed by qPCR. Primers are listed in Supplementary Table 10. ChIP-seq experiments were performed by GENEWIZ. Tracks were visualized using the integrative genome viewer. ChIP-seq analysis were analyzed Cutadapt (V1.9.1) for QC, FastQC (V0.10.1) for QC assessment, Bowtie (V2.1.0) for mapping, strand cross-correlation (SCC) for ChIP quality assessment, MACS2 for peak calling, and R package ChIPpeakAnno for Peak annotated.

PRMT6 = PRMT6 (Homo sapiens, UniProt Q96LA8); assay: biochemical
PRMT6, sequence (Q96LA8 whole entry): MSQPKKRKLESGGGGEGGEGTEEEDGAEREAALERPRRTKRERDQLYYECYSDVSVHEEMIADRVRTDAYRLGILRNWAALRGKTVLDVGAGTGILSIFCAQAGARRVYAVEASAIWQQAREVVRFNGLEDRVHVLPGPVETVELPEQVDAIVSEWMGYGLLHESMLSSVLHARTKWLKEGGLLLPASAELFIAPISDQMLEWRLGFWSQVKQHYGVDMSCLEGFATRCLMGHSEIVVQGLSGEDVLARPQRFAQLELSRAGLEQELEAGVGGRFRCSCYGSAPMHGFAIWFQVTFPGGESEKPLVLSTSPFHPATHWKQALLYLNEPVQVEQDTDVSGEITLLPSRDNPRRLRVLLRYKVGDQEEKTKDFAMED

MLL2 [2] = target: MLL2 (Homo sapiens, UniProt O14686); assay: Radioisotope-based methyltransferase assay (selectivity); settings: MLL2, 1 μM SAM
MLL2, sequence (O14686 5319-5537): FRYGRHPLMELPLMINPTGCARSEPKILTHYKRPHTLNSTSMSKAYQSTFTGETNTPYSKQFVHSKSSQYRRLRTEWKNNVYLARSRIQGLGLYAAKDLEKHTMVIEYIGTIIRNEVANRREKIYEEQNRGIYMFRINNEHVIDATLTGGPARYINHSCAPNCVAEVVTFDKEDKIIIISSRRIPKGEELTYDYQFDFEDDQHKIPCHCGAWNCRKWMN
MLL2, sequence (Q9C005 whole entry, further chain): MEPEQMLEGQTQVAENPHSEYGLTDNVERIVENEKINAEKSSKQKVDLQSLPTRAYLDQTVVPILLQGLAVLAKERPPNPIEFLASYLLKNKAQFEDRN
MLL2, sequence (Q15291 whole entry, further chain): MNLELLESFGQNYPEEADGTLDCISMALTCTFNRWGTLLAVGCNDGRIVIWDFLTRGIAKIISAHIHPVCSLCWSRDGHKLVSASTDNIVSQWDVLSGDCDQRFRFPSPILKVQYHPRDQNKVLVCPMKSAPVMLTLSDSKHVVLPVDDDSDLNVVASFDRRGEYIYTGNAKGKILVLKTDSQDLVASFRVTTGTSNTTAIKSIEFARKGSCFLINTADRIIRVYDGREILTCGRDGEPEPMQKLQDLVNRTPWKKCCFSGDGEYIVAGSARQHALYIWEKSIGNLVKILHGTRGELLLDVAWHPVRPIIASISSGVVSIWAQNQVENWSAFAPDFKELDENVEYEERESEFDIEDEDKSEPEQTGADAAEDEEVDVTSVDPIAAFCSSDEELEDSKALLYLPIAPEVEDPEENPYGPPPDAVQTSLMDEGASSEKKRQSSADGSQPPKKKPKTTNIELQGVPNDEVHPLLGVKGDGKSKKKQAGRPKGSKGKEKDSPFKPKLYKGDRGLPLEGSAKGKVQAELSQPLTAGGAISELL
MLL2, sequence (Q9UBL3 whole entry, further chain): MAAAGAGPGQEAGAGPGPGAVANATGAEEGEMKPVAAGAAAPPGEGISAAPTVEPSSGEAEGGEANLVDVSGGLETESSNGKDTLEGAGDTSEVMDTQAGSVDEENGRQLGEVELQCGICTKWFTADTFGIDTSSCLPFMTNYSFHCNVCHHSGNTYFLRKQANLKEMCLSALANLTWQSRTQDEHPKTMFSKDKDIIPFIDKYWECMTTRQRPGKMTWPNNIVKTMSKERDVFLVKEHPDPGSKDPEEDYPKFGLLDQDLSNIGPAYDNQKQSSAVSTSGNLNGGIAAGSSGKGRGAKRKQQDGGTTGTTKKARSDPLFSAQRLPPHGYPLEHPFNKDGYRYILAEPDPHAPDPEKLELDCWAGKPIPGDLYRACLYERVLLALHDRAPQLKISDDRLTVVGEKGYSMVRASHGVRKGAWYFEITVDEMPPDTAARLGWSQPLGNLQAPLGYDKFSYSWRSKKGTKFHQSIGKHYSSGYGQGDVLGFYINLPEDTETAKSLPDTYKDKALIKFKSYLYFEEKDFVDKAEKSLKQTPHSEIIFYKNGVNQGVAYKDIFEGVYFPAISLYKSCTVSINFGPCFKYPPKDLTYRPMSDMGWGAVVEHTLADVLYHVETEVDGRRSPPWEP
MLL2 (Homo sapiens, UniProt O14686), sequence (O14686 5319-5537): as the sequence (O14686 5319-5537) above
MLL2 (Homo sapiens, UniProt O14686), sequence (Q9C005 whole entry, further chain): as the sequence (Q9C005 whole entry, further chain) above
MLL2 (Homo sapiens, UniProt O14686), sequence (Q15291 whole entry, further chain): as the sequence (Q15291 whole entry, further chain) above
MLL2 (Homo sapiens, UniProt O14686), sequence (Q9UBL3 whole entry, further chain): as the sequence (Q9UBL3 whole entry, further chain) above

DNMT1 = DNMT1 (Homo sapiens, UniProt P26358); assay: as above; settings: IC50, DNMT1, 1 μM SAM
DNMT1, sequence (P26358 whole entry): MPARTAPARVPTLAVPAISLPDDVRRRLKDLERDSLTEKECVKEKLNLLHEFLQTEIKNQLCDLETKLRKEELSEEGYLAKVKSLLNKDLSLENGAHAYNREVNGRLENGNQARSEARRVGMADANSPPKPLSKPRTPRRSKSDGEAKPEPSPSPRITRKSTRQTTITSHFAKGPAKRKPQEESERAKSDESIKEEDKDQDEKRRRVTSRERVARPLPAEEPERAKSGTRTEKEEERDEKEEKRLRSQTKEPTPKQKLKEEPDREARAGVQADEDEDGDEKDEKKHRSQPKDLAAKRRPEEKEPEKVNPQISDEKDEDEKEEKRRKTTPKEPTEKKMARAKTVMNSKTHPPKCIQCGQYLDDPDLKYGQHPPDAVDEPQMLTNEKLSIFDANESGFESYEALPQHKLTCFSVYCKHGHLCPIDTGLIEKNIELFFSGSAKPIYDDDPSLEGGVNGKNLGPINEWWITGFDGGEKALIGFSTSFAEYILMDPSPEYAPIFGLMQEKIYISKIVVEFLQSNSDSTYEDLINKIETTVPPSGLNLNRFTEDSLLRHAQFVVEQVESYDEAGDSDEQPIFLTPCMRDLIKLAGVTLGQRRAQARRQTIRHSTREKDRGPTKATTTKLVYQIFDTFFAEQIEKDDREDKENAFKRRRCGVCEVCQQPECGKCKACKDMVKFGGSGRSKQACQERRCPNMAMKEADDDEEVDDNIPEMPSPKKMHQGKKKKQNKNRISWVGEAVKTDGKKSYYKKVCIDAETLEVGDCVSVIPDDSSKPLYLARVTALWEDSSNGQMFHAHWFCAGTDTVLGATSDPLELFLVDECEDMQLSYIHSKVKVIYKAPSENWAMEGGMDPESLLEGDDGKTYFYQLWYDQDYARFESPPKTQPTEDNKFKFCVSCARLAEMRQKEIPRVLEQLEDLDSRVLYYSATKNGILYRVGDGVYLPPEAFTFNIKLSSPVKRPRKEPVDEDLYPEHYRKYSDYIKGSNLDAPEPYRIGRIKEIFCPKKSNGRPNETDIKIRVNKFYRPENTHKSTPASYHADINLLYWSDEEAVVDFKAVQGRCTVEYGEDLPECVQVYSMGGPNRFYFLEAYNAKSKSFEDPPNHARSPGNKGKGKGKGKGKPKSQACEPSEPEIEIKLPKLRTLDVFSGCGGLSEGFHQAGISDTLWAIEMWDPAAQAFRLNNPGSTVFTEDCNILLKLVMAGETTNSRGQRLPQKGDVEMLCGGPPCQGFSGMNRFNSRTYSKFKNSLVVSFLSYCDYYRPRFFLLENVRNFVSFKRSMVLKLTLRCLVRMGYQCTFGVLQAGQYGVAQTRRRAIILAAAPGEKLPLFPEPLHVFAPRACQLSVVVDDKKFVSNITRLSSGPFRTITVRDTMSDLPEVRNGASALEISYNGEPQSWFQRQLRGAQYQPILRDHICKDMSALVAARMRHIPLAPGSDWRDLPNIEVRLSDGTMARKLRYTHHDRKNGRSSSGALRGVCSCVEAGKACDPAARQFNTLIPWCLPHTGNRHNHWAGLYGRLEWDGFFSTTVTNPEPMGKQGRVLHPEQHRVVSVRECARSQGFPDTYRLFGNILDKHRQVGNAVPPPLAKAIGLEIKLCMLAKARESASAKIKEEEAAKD

[3] = test system: H3K9me2 on the β-globin locus; assay: ChIP-seq for H3K9me2 in HUDEP-2 cells; format: cell-based, human; settings: HUDEP-2, 1 μM, 4 days
Protocol: A total of 0.5–1 × 10^6 cells were cross-linked with 1% formaldehyde for 10 min at room temperature and the reaction was quenched with 250 mM glycine. Cross-linked cells were then lysed with buffer 1 (15 mM Tris-HCl (pH 7.5), 60 mM KCl, 15 mM NaCl, 5 mM MgCl2, 0.1 mM EGTA, 300 mM sucrose, […], 1 mM phenylmethanesulfonyl fluoride (PMSF), 0.5% NP40) and incubated on ice for 10 min. After centrifugation, the pellet was re-suspended in buffer 2 (15 mM Tris-HCl (pH 7.5), 60 mM KCl, 15 mM NaCl, 5 mM MgCl2, 0.1 mM EGTA, 1.2 M sucrose, […], 1 mM PMSF). After centrifugation, the pellet was then re-suspended in MNase buffer (50 mM Tris-HCl (pH 7.5), 1 mM CaCl2, 4 mM MgCl2, 320 mM sucrose, 1 mM PMSF) and digested with 100 U of micrococcal nuclease (Takara) at 37 °C for 15 min. […] The samples were analyzed by qPCR. […] ChIP-seq analysis were analyzed Cutadapt (V1.9.1) for QC, FastQC (V0.10.1) for QC assessment, Bowtie (V2.1.0) for mapping, strand cross-correlation (SCC) for ChIP quality assessment, MACS2 for peak calling, and R package ChIPpeakAnno for Peak annotated.

MLL2 [4] = assay: Radioisotope-based methyltransferase assay (selectivity); settings: MLL2, 1 μM SAM
NSD2 (E1099K) = NSD2 (E1099K) (Homo sapiens, UniProt O96028, E1099K); assay: as above
NSD2 (E1099K), sequence (O96028 whole entry E1099K): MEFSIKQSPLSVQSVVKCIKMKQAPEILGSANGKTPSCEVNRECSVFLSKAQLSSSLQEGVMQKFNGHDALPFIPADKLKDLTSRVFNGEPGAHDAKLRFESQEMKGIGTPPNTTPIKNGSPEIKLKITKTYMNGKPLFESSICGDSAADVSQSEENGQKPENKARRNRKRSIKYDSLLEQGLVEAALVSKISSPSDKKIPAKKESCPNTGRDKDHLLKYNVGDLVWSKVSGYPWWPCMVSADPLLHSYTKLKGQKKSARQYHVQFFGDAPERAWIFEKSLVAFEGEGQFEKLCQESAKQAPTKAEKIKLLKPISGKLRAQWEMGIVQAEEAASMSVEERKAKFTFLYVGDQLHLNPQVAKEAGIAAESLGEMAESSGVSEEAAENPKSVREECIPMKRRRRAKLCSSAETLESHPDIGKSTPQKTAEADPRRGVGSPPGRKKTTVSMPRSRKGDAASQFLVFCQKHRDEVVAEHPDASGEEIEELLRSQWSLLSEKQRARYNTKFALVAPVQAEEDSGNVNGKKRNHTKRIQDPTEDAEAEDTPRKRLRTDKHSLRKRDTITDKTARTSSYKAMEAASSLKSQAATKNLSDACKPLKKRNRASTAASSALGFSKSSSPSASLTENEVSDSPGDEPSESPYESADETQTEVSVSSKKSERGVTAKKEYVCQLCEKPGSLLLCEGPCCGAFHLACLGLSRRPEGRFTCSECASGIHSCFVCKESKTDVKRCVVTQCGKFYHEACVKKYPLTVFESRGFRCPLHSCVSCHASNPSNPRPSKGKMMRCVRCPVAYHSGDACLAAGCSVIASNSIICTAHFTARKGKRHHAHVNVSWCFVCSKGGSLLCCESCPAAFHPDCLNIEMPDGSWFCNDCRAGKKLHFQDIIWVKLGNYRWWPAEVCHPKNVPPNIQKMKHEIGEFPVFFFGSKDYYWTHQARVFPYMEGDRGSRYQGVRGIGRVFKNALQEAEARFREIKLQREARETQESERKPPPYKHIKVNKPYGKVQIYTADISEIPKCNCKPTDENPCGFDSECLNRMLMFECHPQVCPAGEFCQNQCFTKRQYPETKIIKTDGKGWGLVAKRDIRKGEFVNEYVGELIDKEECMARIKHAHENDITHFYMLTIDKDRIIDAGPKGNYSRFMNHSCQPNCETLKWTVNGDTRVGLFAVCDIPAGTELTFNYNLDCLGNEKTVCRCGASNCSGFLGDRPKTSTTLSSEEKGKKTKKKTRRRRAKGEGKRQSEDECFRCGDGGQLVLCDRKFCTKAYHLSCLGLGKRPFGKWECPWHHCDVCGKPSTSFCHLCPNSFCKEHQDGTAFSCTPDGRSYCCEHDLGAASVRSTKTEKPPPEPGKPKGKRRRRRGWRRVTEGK

PRMT7 = PRMT7 (Homo sapiens, UniProt Q9NVM4); assay: as above
NSD2 (T1150A) = NSD2 (T1150A) (Homo sapiens, UniProt O96028, T1150A)
NSD2 (T1150A), sequence (O96028 whole entry T1150A): as the sequence (O96028 whole entry E1099K) above, with K1099E, T1150A counted along it

[5] = Pharmacokinetic (PK) assay; format: in vivo, mice
Protocol: PK studies were performed using 8-week-old male Crl:CD1 ICR mice in accordance with the animal experimental protocol, and procedures were approved by the Animal Care and Ethics Committee of Sekisui Medical. […] […] RK-701 in samples were analyzed by liquid chromatography-tandem mass spectrometry (LC–MS/MS) after deproteinization with acetonitrile. […] PK parameters were calculated using the program Phenix WinNolin (Certara).
The LC-MS/MS system comprised of ACQUITY Ultra Performance LC (Waters) and 4000 QTRAP (Sciex). Acquity UPLC BEH C18 (2.1 × 50 mm, 1.7 μm, Waters) was used as analytical column. The mobile phase consisted of 0.1% formic acid in water (mobile phase A) and acetonitrile (mobile phase B) at a total flow rate of 0.5 mL/min with a column temperature of 40 °C. The chromatographic separation was achieved using gradient elution. The gradient program was: 20% B from 0.0–0.1 min, 20–95% B from 0.1–1.5 min, 95–95% B from 1.5–2.0 min, and 20% B from 2.01–3.0 min. The MS/MS instrument was operated in positive-ion mode with an ion spray voltage of 4200 V, entrance potential of 10 V and source temperature at 600 °C. The curtain gas was set at 12 psi, ion source gas 1 at 40 psi, ion source gas 2 at 50 psi. […] Data acquisition and quantitation were performed by using Analyst (ver.1.4.3, Sciex).

[6] = male, Crl:CD1 ICR, mouse, ip, mice, plasma, single intraperitoneal 25 mg/kg

With `NC(=O)NO` [Hydroxyurea, hydroxyurea] the “ChIP-qPCR using antibodies against H3K9me2 in HUDEP-2 cells” value (“ChIP-qPCR using antibodies” for short) ([1]; BGLT3 locus) was 0.3036 and 0.9734 and 0.09549 and 0.1907 and 0.4324 and 0.08257, the “ChIP-qPCR using antibodies” value ([1]; HS1) was 0.1874 and 0.4067 and 0.1711 and 0.2985 and 0.4573 and 0.2803 and the “ChIP-qPCR using antibodies” value ([1]; HS2) was 0.813 and 0.5625 and 0.04813 and 0.5561 and 0.988. The “ChIP-qPCR using antibodies” value ([1]; HS3) was 0.3829 and 1.033 and 0.3275 and 0.3135 and 0.5984 and 0.1213, the “ChIP-qPCR using antibodies” value ([1]; HS4) was 0.2695 and 0.4846 and 0.05083 and 0.7217 and 0.09433 and the “H3K9me2 levels at the β-globin gene locus” value ([1]; HUDEP-2, 200 μM, 4 days) was “did not alter H3K9me2 levels”. For the same compound, the “ChIP-qPCR using antibodies” value ([1]; β-globin promoter) was 0.2611 and 0.4698 and 0.1317 and 0.1934 and 0.3991 and 0.1179, the “ChIP-qPCR using antibodies” value ([1]; γ-globin promoter) was 0.6385 and 1.7009 and 0.2449 and 0.8192 and 0.4081 and the “ChIP-qPCR using antibodies” value ([1]; δ-globin promoter) was 0.1111 and 0.2374 and 0.06666 and 0.1168 and 0.2688 and 0.05187.

In the case of `Nc1ncnc2c1ncn2[C@@H]1O[C@H](CSCC[C@H](N)C(=O)O)[C@@H](O)[C@H]1O` [SAH, S-(5'-Adenosyl)-L-homocysteine, reference compound], the IC50 (PRMT6) is reported as 0.408 µM and the IC50 (MLL2 [2]) is reported as 11.6 µM.

For `Cc1c(C(=O)NC(CCC2CC2)C(=O)Nc2ccc(C#N)cc2)[nH]c2c1C(=O)CC(C)(C)C2` (centres unmarked) [RK-701], the IC50 (DNMT1) was > 100 µM, the “occupancies of H3K9me2 throughout the β-globin gene locus” value [3] was “reduced” and the IC50 (MLL2 [4]) was > 100 µM. For the same compound, the IC50 (NSD2 (E1099K)) was > 100 µM, the IC50 (PRMT7) was > 100 µM and the IC50 (NSD2 (T1150A)) was > 100 µM. The concentration at 1 h ([5]; Time 1 h, read-out: concentration (pharmacokinetic properties)) was 17.9827 µM and 11.6451 µM, the concentration at 1 h ([5]; Time 2 h, read-out: concentration (pharmacokinetic properties)) was 17.6692 µM and 34.4874 µM and the concentration at 1 h ([5]; Time 4 h, read-out: concentration (pharmacokinetic properties)) was 51.2832 µM and 42.7733 µM. For the same compound, the concentration at 1 h ([5]; Time 8 h, read-out: concentration (pharmacokinetic properties)) was 20.155 µM and 23.2902 µM, the AUC(0-inf) [5, 6] was 418 ± 7 µM·h and the Cmax [5, 6] was 42.4 µM. The Tmax [5, 6] was 4 h, the half-life [5, 6] was 1.4 ± 0.1 h and the concentration at 1 h ([5]; male, Crl:CD1 ICR, mouse, plasma, intraperitoneal, 25 mg/kg, Time 1 h, read-out: concentration (pharmacokinetic properties)) was 9.2 µM. It also gave a concentration at 2 h ([5]; male, Crl:CD1 ICR, mouse, plasma, intraperitoneal, 25 mg/kg, Time 2 h, read-out: concentration (pharmacokinetic properties)) of 25.8 µM, a concentration at 4 h ([5]; male, Crl:CD1 ICR, mouse, plasma, intraperitoneal, 25 mg/kg, Time 4 h, read-out: concentration (pharmacokinetic properties)) of 33.1 µM and a concentration at 8 h ([5]; male, Crl:CD1 ICR, mouse, plasma, intraperitoneal, 25 mg/kg, Time 8 h, read-out: concentration (pharmacokinetic properties)) of 28.2 µM.
